The text below walks through data of US11833204B2, “Visible light-activatable nanoparticles for cancer immunotherapy and use thereof” (KOREA INSTITUTE OF SCIENCE AND TECHNOLOGY, priority 2021, dated 2023).

The test system of assay [1] is CT26 cells. As to the kind of experiment: CT26 cell viability (CCK) after visible light irradiation. The format is cell-based. The note with it: CT26, 0-10 μM, 24 h, 671 nm laser 40 mW 250 sec. The procedure: After CT26 cells were plated in a 96-well plate at a density of 5×10^3 cells/well, the wells were treated with doxorubicin (DOX) (0, 0.01, 0.1, 1, and or 10 μM), verteporfin (VPF) (0, 0.01, 0.1, 1, and 10 μM), mixtures thereof (DOX+VPF), and the self-assembled nanoparticles (LT-NPs) (0, 0.01, 0.1, 1, and 10 μM). After culture for 24 h, cells were exposed by irradiation with visible light using a 671 nm laser at 40 mW for 250 sec. Then, a cell culture medium containing […] of CCK solution was added to each well. Cells were further cultured for 20 min and the absorbance of the 96-well plate was measured at 450 nm on a VERSAmax™ microplate reader (Molecular Devices Corp., Sunnyvale, Calif.).

The next assay deals with cathepsin B (Homo sapiens, UniProt P07858). As to the kind of experiment: Cleavage of LT-NPs by cathepsin B (RP-HPLC, fluorescence, TEM). It is filed as biochemical. On the procedure:
The self-assembled nanoparticles (LT-NPs) prepared in Example 1, doxorubicin (DOX), and verteporfin (VPF) were used as samples. 1 mg of each sample was mixed with physiological saline (1 mL). […] The self-assembled nanoparticles (LT-NPs) were mixed with cathepsin B (Cat-B) protease (50 μg/mL). The mixture was allowed to react for 24 h.
In this example, the activation of the self-assembled nanoparticles (LT-NPs) by cathepsin B (Cat-B) was determined. To this end, an experimental sample and a comparative sample were prepared and allowed to react in an incubator at 37° C. Specific cleavages by cathepsin B were evaluated at reaction times of 0, 9, and 24 h by reversed phase high-performance liquid chromatography (RT-HPLC).
Experimental sample (Cat-B): The self-assembled nanoparticles (LT-NPs) (10 μM) prepared in Example 1 were mixed with a 2-(N-morpholine)-ethanesulphonic acid (MES) buffer (200 μL) containing cathepsin B (10 μg).
Comparative sample (Cat-B+inhibitor): The self-assembled nanoparticles (LT-NPs) (10 μM) prepared in Example 1 were mixed with a 2-(N-morpholine)-ethanesulphonic acid (MES) buffer (200 μL) containing cathepsin B (10 μg) and a cathepsin B inhibitor (Z-FA-FMK, 50 μM).

Assay [2] deals with CT26 cells. In words: Immunogenic cell death: calreticulin expression. The format is cell-based. The note with it: CT26, 5 μM, 24 h, +L/−L. On the procedure: First, CT26 cells were plated in 35 mm cell culture dishes at a density of 1×10^5 cells/dish and doxorubicin (DOX) (5 μM), verteporfin (VPF) (5 μM) or the self-assembled nanoparticles (LT-NPs) (5 μM) were added to each dish. After 24-h culture, one half was exposed by irradiation with visible light using a 671 nm laser at 40 mW for 250 sec (+L) and the other half was not irradiated with visible light for comparison (−L). The immunogenic cell death of the self-assembled nanoparticles (LT-NPs) was evaluated using the cells and the cell culture media.
Cells were stained with APC-conjugated CRT antibody for 12 h and observed with a confocal fluorescence microscope.

Assay [3] concerns spleen cells isolated from Balb/c mice. In words: Immune cell activation: treated CT26 cells co-cultured with spleen cells (flow cytometry). The note with it: 5 μM, co-culture with spleen cells 24 h; versus doxorubicin or verteporfin alone. The format is cell-based. On the procedure:
First, CT26 cells were plated in 100-pi cell culture dishes at a density of 1×10^6 cells/dish and cultured for stabilization for 24 h. Doxorubicin (DOX) (5 μM), verteporfin (VPF) […] or the self-assembled nanoparticles (LT-NPs) (5 μM) were added to each dish. After 24-h culture, one half was exposed by irradiation with visible light using a 671 nm laser at 40 mW for 250 sec (+L) and the other half was not irradiated with visible light for comparison (−L). 1×10^6 spleen cells isolated from Balb/c mice were added to each sample, followed by co-culture for 24 h (FIG. 4I).
The degrees of differentiation into mature dendritic cells and activated T cells in each sample were analyzed using a flow cytometer.

As to `C=CC1=C(C)/C2=C/C3=NC(Cc4[nH]c(c(CCCCC(=O)OC)c4C)CC4N=C(CC1N2)C(C)=C4CCC(=O)N[C@H](Cc1ccccc1)C(=O)N[C@@H](CCCNC(=N)N)C(=O)N[C@H](CCCNC(=N)N)C(=O)NCC(=O)NC1C[C@@H](OC2C[C@](O)(C(=O)CO)Cc4c(O)c5c(c(O)c42)C(=O)c2c(OC)cccc2C5=O)O[C@@H](C)[C@H]1O)[C@@]1(C)C3=CC=C(C(=O)OC)[C@@H]1C(=O)OC` (stereo partly drawn) [LT-NPs, VPF-FRRG(SEQ ID NO: 1)-DOX], in the assay with CT26 cells [1], the “cell viability versus doxorubicin and verteporfin” value is on record as “no significant differences”. Besides, the “cleavage by cathepsin B” value on cathepsin B (10 μM, cathepsin B 10 μg in MES buffer, 37° C., RP-HPLC and fluorescence) is “cleaved by cathepsin B to release doxorubicin and the photosensitizer”. The “morphology after reaction with cathepsin B (TEM)” value at cathepsin B (Cat-B 50 μg/mL, 24 h) is reported as “degraded by cathepsin B”. The calreticulin expression entry in the assay with CT26 cells [2] is recorded as “Significantly higher”. In assay [3], the “degree of differentiation into activated T cells” value is “significantly higher” and the “degree of differentiation into mature dendritic cells” value is given as “significantly higher”.
